Source: BindingDB's records for doi:10.1021/jm990281p (Parke-Davis Pharmaceutical Research, 2000)

How the values were obtained:
[1] = target: T1, Gag-Pol polyprotein [489-587] (Human immunodeficiency virus 1, UniProt P04585); assay: Protease Inhibition Assay
T1 construct: 489-587
Method: (§1) Sensitivity of HIV-1 protease activity to protease inhibitors was determined by a peptide substrate cleavage assay. Protease products were analyzed on a reverse-phase high-pressure liquid chromatograph.

[2] = target: T2, Dimer of Gag-Pol polyprotein [489-587] (Human immunodeficiency virus 1, UniProt P12497); assay: Protease Inhibition Assay
T2 construct: 489-587
Method: as §1

Row | Compound | IC50 [1] [nM] | IC50 [2] [nM] | other results
1 | Cc1cc(SC2C(=O)CC(CCc3ccccc3)(C(C)C)OC2=O)c(C(C)(C)C)cc1NS(=O)(=O)c1cccnc1 (configuration not stated) | 3.5 | 3.5 | 
2 | CCNS(=O)(=O)Oc1cc(C(C)(C)C)c(SC2C(=O)CC(CCc3ccccc3)(C(C)C)OC2=O)cc1C (configuration not stated) | 8.9 |  | 
3 | Cc1cc(SC2C(=O)CC(CCc3ccc(O)cc3)(C3CCCCC3)OC2=O)c(C(C)(C)C)cc1OS(=O)(=O)Cn1ccnc1 (configuration not stated) | 8 |  | 
4 | Cc1cc(SC2C(=O)CC(C)(CCc3ccc(O)cc3)OC2=O)c(C(C)(C)C)cc1OS(=O)(=O)Cn1ccnc1 (configuration not stated) | 2 |  | 
5 | Cc1cc(SC2C(=O)CC(CCc3ccc(O)cc3)(C(C)C)OC2=O)c(C(C)(C)C)cc1OS(=O)(=O)Cn1ccnc1 (configuration not stated) | 2.4 |  | 
6 | Cc1cc(SC2C(=O)CC(CCc3ccccc3)(C(C)C)OC2=O)c(C(C)(C)C)cc1OS(=O)(=O)Cn1ccnc1 (configuration not stated) | 3 |  | 
7 | Cc1cc(SC2C(=O)CC(C)(CCc3ccc(O)cc3)OC2=O)c(C(C)(C)C)cc1NS(=O)(=O)Cn1ccnc1 (configuration not stated) | 1.9 |  | 
8 | Cc1cc(SC2C(=O)CC(CCc3ccc(N)cc3)(C(C)C)OC2=O)c(C(C)(C)C)cc1OS(=O)(=O)c1cccs1 (configuration not stated) | 18.5 |  | 
9 | CCCC1(CCc2ccc(O)cc2)CC(=O)C(Sc2cc(C)c(OS(=O)(=O)Cn3ccnc3)cc2C(C)(C)C)C(=O)O1 (configuration not stated) | 2.2 |  | 
10 | Cc1cc(SC2C(=O)CC(CCc3ccc(O)cc3)(CC(C)C)OC2=O)c(C(C)(C)C)cc1OS(=O)(=O)Cn1ccnc1 (configuration not stated) | 3.6 |  | 
11 | Cc1cc(SC2C(=O)CC(CCc3ccccc3)(C(C)C)OC2=O)c(C(C)(C)C)cc1NS(=O)(=O)Cn1ccnc1 (configuration not stated) | 1.9 |  | 
12 | Cc1cc(SC2C(=O)CC(C)(CCc3ccc(O)cc3)OC2=O)c(C(C)(C)C)cc1NS(=O)(=O)c1ccc(-c2cccs2)cc1 (configuration not stated) | 6.3 |  | 
13 | Cc1cc(SC2C(=O)CC(CCc3ccc(N)cc3)(C(C)C)OC2=O)c(C(C)(C)C)cc1OS(=O)(=O)Cn1ccnc1 (configuration not stated) | 2.2 |  | 
14 | Cc1cc(SC2C(=O)CC(CCc3ccc(N)cc3)(C(C)C)OC2=O)c(C(C)(C)C)cc1OS(=O)(=O)c1cccnc1 (configuration not stated) | 4.1 |  | 
15 | Cc1cc(SC2C(=O)CC(CCc3ccc(N)cc3)(C(C)C)OC2=O)c(C(C)(C)C)cc1OS(=O)(=O)c1nccn1C (configuration not stated) [4-({6-[2-(4-aminophenyl)ethyl]-4-hydroxy-2-oxo-6-(propan-2-yl)-5,6-dihydro-2H-pyran-3-yl}sulfanyl)-5-tert-butyl-2-methylphenyl 1-methyl-1H-imidazole-2-sulfonate] |  | 2.2 | 
16 | Cc1cc(SC2C(=O)CC(CCc3ccc(N)cc3)(C(C)C)OC2=O)c(C(C)(C)C)cc1OS(=O)(=O)c1ccccc1-c1cccs1 (configuration not stated) [4-({6-[2-(4-aminophenyl)ethyl]-4-hydroxy-2-oxo-6-(propan-2-yl)-5,6-dihydro-2H-pyran-3-yl}sulfanyl)-5-tert-butyl-2-methylphenyl 2-(thiophen-2-yl)benzene-1-sulfonate] |  | 18.5 | 
17 | Cc1cc(SC2C(=O)CC(CCc3ccc(N)cc3)(C(C)C)OC2=O)c(C(C)(C)C)cc1OS(=O)(=O)c1cccc(-c2cccnc2)c1 (configuration not stated) [4-({6-[2-(4-aminophenyl)ethyl]-4-hydroxy-2-oxo-6-(propan-2-yl)-5,6-dihydro-2H-pyran-3-yl}sulfanyl)-5-tert-butyl-2-methylphenyl 3-(pyridin-3-yl)benzene-1-sulfonate] |  | 4.1 | 
18 | Cc1cc(SC2C(=O)CC(CCc3ccc(N)cc3)(C(C)C)OC2=O)c(C(C)(C)C)cc1OS(=O)(=O)N(C)C (configuration not stated) [4-({6-[2-(4-aminophenyl)ethyl]-4-hydroxy-2-oxo-6-(propan-2-yl)-5,6-dihydro-2H-pyran-3-yl}sulfanyl)-5-tert-butyl-2-methylphenyl N,N-dimethylsulfamate] | 3.9 |  | 

Row | Compound | IC50 [1] [nM] | IC50 [2] [nM] | other results
19 | CCNS(=O)(=O)Oc1cc(C(C)(C)C)c(SC2C(=O)CC(CCc3ccc(N)cc3)(C(C)C)OC2=O)cc1C (configuration not stated) [4-({6-[2-(4-aminophenyl)ethyl]-4-hydroxy-2-oxo-6-(propan-2-yl)-5,6-dihydro-2H-pyran-3-yl}sulfanyl)-5-tert-butyl-2-methylphenyl N-ethylsulfamate] | 4.3 |  | 
20 | Cc1cc(SC2C(=O)CC(CCc3ccc(O)cc3)(C(C)C)OC2=O)c(C(C)(C)C)cc1OS(=O)(=O)c1nccn1C (configuration not stated) [5-tert-butyl-4-({4-hydroxy-6-[2-(4-hydroxyphenyl)ethyl]-2-oxo-6-(propan-2-yl)-5,6-dihydro-2H-pyran-3-yl}sulfanyl)-2-methylphenyl 1-methyl-1H-imidazole-2-sulfonate] |  | 2.4 | 
21 | Cc1cc(SC2C(=O)CC(CCc3ccc(O)cc3)(C(C)C)OC2=O)c(C(C)(C)C)cc1OS(C)(=O)=O (configuration not stated) [5-tert-butyl-4-({4-hydroxy-6-[2-(4-hydroxyphenyl)ethyl]-2-oxo-6-(propan-2-yl)-5,6-dihydro-2H-pyran-3-yl}sulfanyl)-2-methylphenyl methanesulfonate] |  | 2.2 | 
22 | CCCC1(CCc2ccc(O)cc2)CC(=O)C(Sc2cc(C)c(OS(=O)(=O)c3nccn3C)cc2C(C)(C)C)C(=O)O1 (configuration not stated) [5-tert-butyl-4-({4-hydroxy-6-[2-(4-hydroxyphenyl)ethyl]-2-oxo-6-propyl-5,6-dihydro-2H-pyran-3-yl}sulfanyl)-2-methylphenyl 1-methyl-1H-imidazole-2-sulfonate] |  | 2.2 | 
23 | Cc1cc(SC2C(=O)CC(CCc3ccc(O)cc3)(CC(C)C)OC2=O)c(C(C)(C)C)cc1OS(=O)(=O)c1nccn1C (configuration not stated) [5-tert-butyl-4-({4-hydroxy-6-[2-(4-hydroxyphenyl)ethyl]-6-(2-methylpropyl)-2-oxo-5,6-dihydro-2H-pyran-3-yl}sulfanyl)-2-methylphenyl 1-methyl-1H-imidazole-2-sulfonate] |  | 3.6 | 
24 | Cc1cc(SC2C(=O)CC(C)(CCc3ccc(O)cc3)OC2=O)c(C(C)(C)C)cc1OS(=O)(=O)c1nccn1C (configuration not stated) [5-tert-butyl-4-({4-hydroxy-6-[2-(4-hydroxyphenyl)ethyl]-6-methyl-2-oxo-5,6-dihydro-2H-pyran-3-yl}sulfanyl)-2-methylphenyl 1-methyl-1H-imidazole-2-sulfonate] |  | 2 | 
25 | Cc1cc(SC2C(=O)CC(CCc3ccc(O)cc3)(C3CCCCC3)OC2=O)c(C(C)(C)C)cc1OS(=O)(=O)c1nccn1C (configuration not stated) [5-tert-butyl-4-({6-cyclohexyl-4-hydroxy-6-[2-(4-hydroxyphenyl)ethyl]-2-oxo-5,6-dihydro-2H-pyran-3-yl}sulfanyl)-2-methylphenyl 1-methyl-1H-imidazole-2-sulfonate] |  | 8 | 
26 | Cc1cc(SC2C(=O)CC(CCc3ccccc3)(C(C)C)OC2=O)c(C(C)(C)C)cc1OS(=O)(=O)c1nccn1C (configuration not stated) [5-tert-butyl-4-{[4-hydroxy-2-oxo-6-(2-phenylethyl)-6-(propan-2-yl)-5,6-dihydro-2H-pyran-3-yl]sulfanyl}-2-methylphenyl 1-methyl-1H-imidazole-2-sulfonate] |  | 3 | 
27 | CCNS(=O)(=O)Oc1cc(C(C)(C)C)c(SC2C(=O)CC(CCc3ccc(O)cc3)(C(C)C)OC2=O)cc1C (configuration not stated) [6-Alkyl-5,6-Dihydropyran-2-one 20] | 4.9 |  | 
28 | Cc1cc(SC2C(=O)CC(CCc3ccc(O)cc3)(C(C)C)OC2=O)c(C(C)(C)C)cc1OS(=O)(=O)N(C)C (configuration not stated) [6-Alkyl-5,6-Dihydropyran-2-one 22] | 3.4 |  | 
29 | Cc1cc(SC2C(=O)C[C@](CCc3ccc(O)cc3)(C(C)C)OC2=O)c(C(C)(C)C)cc1N (stereo partly drawn) [(6R)-3-[(4-amino-2-tert-butyl-5-methylphenyl)sulfanyl]-4-hydroxy-6-[2-(4-hydroxyphenyl)ethyl]-6-(propan-2-yl)-5,6-dihydro-2H-pyran-2-one] |  |  | Ki [2]: 13 nM
30 | Cc1cc(SC2C(=O)CC(CCc3ccccc3)(C(C)C)OC2=O)c(C(C)(C)C)cc1NS(=O)(=O)c1nccn1C (configuration not stated) [N-(5-tert-butyl-4-{[4-hydroxy-2-oxo-6-(2-phenylethyl)-6-(propan-2-yl)-5,6-dihydro-2H-pyran-3-yl]sulfanyl}-2-methylphenyl)-1-methyl-1H-imidazole-2-sulfonamide] |  | 1.9 | 
31 | Cc1cc(SC2C(=O)CC(CCc3ccccc3)(C(C)C)OC2=O)c(C(C)(C)C)cc1NS(=O)(=O)c1ccc(C#N)cc1 (configuration not stated) [N-(5-tert-butyl-4-{[4-hydroxy-2-oxo-6-(2-phenylethyl)-6-(propan-2-yl)-5,6-dihydro-2H-pyran-3-yl]sulfanyl}-2-methylphenyl)-4-cyanobenzene-1-sulfonamide] |  |  | IC50 ([2]; pH 6.2, 37 °C): 9.1 nM
32 | Cc1cc(SC2C(=O)CC(CCc3ccccc3)(C(C)C)OC2=O)c(C(C)(C)C)cc1NS(=O)(=O)c1ccc(C(F)(F)F)cn1 (configuration not stated) [N-(5-tert-butyl-4-{[4-hydroxy-2-oxo-6-(2-phenylethyl)-6-(propan-2-yl)-5,6-dihydro-2H-pyran-3-yl]sulfanyl}-2-methylphenyl)-5-(trifluoromethyl)pyridine-2-sulfonamide] |  |  | Ki [2]: 1.04 nM
33 | Cc1cc(SC2C(=O)C[C@](CCc3ccccc3)(C(C)C)OC2=O)c(C(C)(C)C)cc1NS(=O)(=O)c1ccc(C(F)(F)F)cn1 (stereo partly drawn) [N-(5-tert-butyl-4-{[(6R)-4-hydroxy-2-oxo-6-(2-phenylethyl)-6-(propan-2-yl)-5,6-dihydro-2H-pyran-3-yl]sulfanyl}-2-methylphenyl)-5-(trifluoromethyl)pyridine-2-sulfonamide] |  |  | Ki [2]: 6.4 nM
34 | Cc1cc(SC2C(=O)C[C@](CCc3ccc(O)cc3)(C(C)C)OC2=O)c(C(C)(C)C)cc1NS(=O)(=O)c1ccc(C(F)(F)F)cn1 (stereo partly drawn) [N-(5-tert-butyl-4-{[(6R)-4-hydroxy-6-[2-(4-hydroxyphenyl)ethyl]-2-oxo-6-(propan-2-yl)-5,6-dihydro-2H-pyran-3-yl]sulfanyl}-2-methylphenyl)-5-(trifluoromethyl)pyridine-2-sulfonamide] |  |  | Ki [2]: 9.54 nM
35 | Cc1cc(SC2C(=O)CC(C)(CCc3ccc(O)cc3)OC2=O)c(C(C)(C)C)cc1NS(=O)(=O)c1nccn1C (configuration not stated) [N-[5-tert-butyl-4-({4-hydroxy-6-[2-(4-hydroxyphenyl)ethyl]-6-methyl-2-oxo-5,6-dihydro-2H-pyran-3-yl}sulfanyl)-2-methylphenyl]-1-methyl-1H-imidazole-2-sulfonamide] |  |  | IC50 ([2]; pH 6.2, 37 °C): 1.9 nM
36 | Cc1cc(SC2C(=O)CC(C)(CCc3ccc(O)cc3)OC2=O)c(C(C)(C)C)cc1NS(=O)(=O)c1cccc(-c2cccs2)c1 (configuration not stated) [N-[5-tert-butyl-4-({4-hydroxy-6-[2-(4-hydroxyphenyl)ethyl]-6-methyl-2-oxo-5,6-dihydro-2H-pyran-3-yl}sulfanyl)-2-methylphenyl]-3-(thiophen-2-yl)benzene-1-sulfonamide] |  |  | IC50 ([2]; pH 6.2, 37 °C): 6.3 nM
